# Biological target: PHD2_181-426 (Homo sapiens, UniProt Q9GZT9)
# Assay: Photo cross-linking of purified PHD2 analysed by MALDI-MS
# Format: binding
# Sequence of PHD2_181-426 (Q9GZT9 181-426): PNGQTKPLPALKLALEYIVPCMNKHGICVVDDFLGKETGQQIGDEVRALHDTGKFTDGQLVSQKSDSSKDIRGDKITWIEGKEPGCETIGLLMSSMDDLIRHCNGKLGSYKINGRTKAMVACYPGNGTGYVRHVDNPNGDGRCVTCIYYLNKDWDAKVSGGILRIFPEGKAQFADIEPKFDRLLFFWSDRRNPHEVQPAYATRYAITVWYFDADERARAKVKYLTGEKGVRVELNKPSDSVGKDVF
smiles,measurement,value
O=C(O)CNC(=O)c1nc(Cl)c2ccccc2c1O [[(1-chloro-4-hydroxyisoquinoline-3-carbonyl)-amino]-acetic acid],extent of cross-linking of PHD2 by DR025 in competition experiment,substantially reduced

# Reference: paper PMC4681097 (Chemistry & biology, 2011)
